From patent publication US8519110B2, “mRNA cap analogs” (Board of Supervisors of Louisiana State University And …, priority 2008, dated 2013)
Like-named read-outs stand apart in the source and are kept apart here.

Key:
eIF4E = eIF4E (Mus musculus, UniProt P63073); assay: Binding affinity of cap analogs to eIF4E by fluorescence titration; conditions: equilibrium association constant; for Cap analog/eIF4E affinity (KAS): 20 °C, pH 7.2, ionic strength 150 mM
Protocol: Fluorescence titration measurements were carried out on an LS-50B or LS-55 spectrofluorometer (Perkin Elmer Co.) at 20.0±0.2° C. in 50 mM HEPES/KOH (pH 7.2), 0.5 mM EDTA, and 1 mM DTT, with ionic strength adjusted to 150 mM by addition of KCl. Various cap analogue solutions, of increasing concentration, were added in 1 μl aliquots to 1.4 ml of 0.1 or 0.2 μM protein solutions. Fluorescence intensities were measured with excitation at 280 nm or 295 nm with 2.2 nm bandwidth, and detection at 337 nm with 4 nm bandwidth and a 290-nm cut-off filter. The data were corrected for sample dilution and inner filter effects. Equilibrium association constants (Kas) were determined by fitting the theoretical dependence of fluorescence intensity on cap analog concentration to the experimental data, as otherwise described in A. Niedźwiecka et al., “Biophysical studies of eIF4E cap-binding protein: recognition of mRNA 5′ cap structure and synthetic fragments of eIF4G and 4E-BP1 proteins,” J. Mol. Biol., vol. 312, pp. 615-635 (2002). The concentration of protein was allowed to be a free parameter in the equilibrium equation, to determine the amount of “active” protein. The final Kas was calculated as a weighted average of three to ten independent titrations, with the weights taken as the reciprocals of the squares of the numerical standard deviations. Numerical nonlinear least-square regression analysis was performed using ORGIN 6.0 (Microcal Software Inc., USA).
The binding affinities of eukaryotic eIF4E for various cap analogs were determined by fluorescence quenching. This biophysical test allows one to predict the potential efficacy of cap analogs in translation. Those having higher affinities for eIF4E than the unmodified cap analog (m^7GpppG) are expected to be better recognized by the translational machinery, leading to higher translational efficiencies. They also are expected to compete more effectively with unmodified mRNA when free cap dinucleotides are used to inhibit translation. See generally E. Grudzien-Nogalska et al., “Synthesis of anti-reverse cap analogs (ARCAs) and their applications in mRNA translation and stability,” Methods Enzymol., vol. 431, pp. 203-227 (2007).

Human DcpS = target: T1, Human DcpS (Homo sapiens, UniProt Q96C86); assay: Assay of susceptibility to DcpS (RP HPLC); format: biochemical
T1 construct: made in house; host or cells: Escherichia coli
T1 sequence (Q96C86 1-337): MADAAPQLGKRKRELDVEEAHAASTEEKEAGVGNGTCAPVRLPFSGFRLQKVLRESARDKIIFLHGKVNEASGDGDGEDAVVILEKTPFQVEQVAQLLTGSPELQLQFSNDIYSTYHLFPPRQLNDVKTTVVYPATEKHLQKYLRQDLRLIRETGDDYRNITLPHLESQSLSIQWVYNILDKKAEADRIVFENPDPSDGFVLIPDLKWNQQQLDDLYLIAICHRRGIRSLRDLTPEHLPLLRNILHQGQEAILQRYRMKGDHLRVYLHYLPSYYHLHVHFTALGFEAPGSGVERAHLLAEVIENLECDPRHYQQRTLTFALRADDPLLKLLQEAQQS
Protocol: Human DcpS was expressed in Escherichia coli as described in L. Cohen et al., “Nematode m^7GpppG and m3^2,2,7GpppG decapping: activities in Ascaris embryos and characterization of C. elegans scavenger DcpS,” RNA, vol. 10, pp. 1609-1624 (2004). A 15 μM solution of the protein in 20 mM Tris buffer, pH 7.5, containing 50 mM KCl, 0.2 mM EDTA, 1 mM DTT, 0.5 mM PMSF, and 20% glycerol was stored at −80° C. until used. Enzymatic reactions were carried out at 30° C. in 500 μl of 50 mM Tris-HCl, pH 7.9, containing 20 mM MgCl2 and 60 mM (NH4)2SO4. A 40 μM solution of the selected cap analog was treated with 5.0 μl of DcpS for 120 min. At times of 10, 30, 60, and 120 min, a 100-μl sample was collected from the reaction mixture and deactivated by incubation at 90° C. for 2 min. Samples were analyzed without further treatment by analytical RP HPLC with a linear gradient of methanol in 0.1 M KH2PO4, pH 6.0, from 0-50% over 15 min.

[1] = test system: rabbit reticulocyte lysate system; assay: In vitro translation efficiency of capped luciferase mRNA with 31-base poly(A) tail, method II transcripts; format: biochemical; conditions: for Translation efficiency in comparison to m^7GpppG-LUC-(A)31 mRNA, Experiment No. 4: experiment 4; for Translation efficiency in comparison to m^7GpppG-LUC-(A)31 mRNA, Experiment No. 5: experiment 5; for Translation efficiency in comparison to m^7GpppG-LUC-(A)31 mRNA, Mean: mean of experiments
Protocol: Capped, polyadenylated luciferase mRNAs were synthesized in vitro by PCR from a dsDNA template that contained the SP6 promoter, the 5′-UTR sequence of rabbit β-globin mRNA, the entire firefly luciferase coding region, and 31 adenosine residues. A typical transcription reaction mixture (40 μl) contained SP6 transcription buffer (Fermentas), 0.7 ug of DNA template, 1 U/μl RiboLock Ribonuclease Inhibitor (Fermentas), 0.5 mM each of ATP, CTP, and UTP, 0.1 mM GTP, and 0.5 mM dinucleotide cap analog. The reaction mixture was incubated at 37° C. for 5 min before addition of SP6 RNA polymerase (Fermentas) to a final concentration of 1 U/μl, and incubation then continued for 45 min at 37° C. The reaction mixture was treated with DNase as in Method I. RNA transcripts were purified with NucAway Spin Columns (Ambion). The integrity of transcripts and quantitation was performed as in Method I.
(§1) A micrococcal nuclease-treated rabbit reticulocyte lysate system (Flexi Rabbit Reticulocyte Lysate System, Promega) was used for in vitro translation. Translation reactions were performed in 10 μl for 60 min at 30° C. A typical reaction mixture contained 40% reticulocyte lysate, the 20 “standard” amino acids (0.01 mM each), MgCl2 (1.2 mM), potassium acetate (170 mM), and mRNA (five different concentrations of each transcript, ranging from 0.25 to 4 μg/ml). Luciferase activity was measured in a luminometer (Glomax, Promega). Linear regression was used to fit the data points (luciferase activity versus concentration of mRNA transcript), and translational efficiency was defined as the slope of this line. The relative translational efficiencies of the test mRNAs were compared to that of m^7GpppG-capped luciferase mRNA, the latter being defined as 1.0.

[2] = target: cap-dependent translation of luciferase mRNA in reticulocyte lysate; assay: Inhibition of cap-dependent translation in vitro by free cap analogs; format: biochemical, rabbit
Protocol: In vitro translation reactions were performed in 12.5 μl for 60 min at 30° C. under conditions favorable for cap-dependent translation. In some cases, the reaction mixture was incubated for 60 min at 30° C. prior to adding the dinucleotide cap analog (inhibitor) and m2^7,3′-OGppG-capped luciferase mRNA to start translation. In other cases, to analyze biological stability, the cap analog was incubated in the translation mixture for 60 min at 30° C. prior to adding the luciferase mRNA to start translation. A typical reaction mixture contained 56% reticulocyte lysate, the 20 “standard” amino acids (0.01 mM each), MgCl2 (1.2 mM), potassium acetate (170 mM), RiboLock Ribonuclease Inhibitor (0.32 U/μl), cap analog solution ( 1/10 of total reaction volume), and m2^7,3′-OGpppG-capped luciferase RNA. […] Reactions were performed with cap analog concentrations ranging from 0.12 to 100 μM. Luciferase activity was measured in a luminometer. […] The program OriginPro8 (OriginLab) was used for curve fitting with the equation qLUC=Z/(1+I/IC50)+N, where qLUC is the activity of luciferase synthesized in the presence of cap analog, Z is the activity of luciferase synthesized in the absence of cap analog, N is the activity of luciferase synthesized in a cap-independent manner, and I is the cap analog concentration.
Two type of experiments were carried out. In one set of experiments (condition A), a cap analog was added to the translation system together with luciferase mRNA. In the other set of experiments (condition B), the cap analog was incubated in the translation system for 60 min before addition of mRNA. […] There was a correlation between the resistance to hydrolysis by DcpS and the stability of analogs in the translation system.

[3] = test system: rabbit reticulocyte lysate system; assay: In vitro translation efficiency of capped luciferase mRNA, method I transcripts; format: biochemical
Protocol: A DNA template for in vitro transcription was synthesized by PCR from the plasmid SP6p-5′UTR β-globin-LUCiferase. The template contained the SP6 promoter followed by the 5′-UTR sequence of rabbit β-globin mRNA and the entire firefly luciferase mRNA coding region. A typical in vitro transcription reaction mixture (50 μl) contained SP6 transcription buffer (Fermentas, cat. no. EP0131), 2 μg of DNA template, 2 U/μl RiboLock Ribonuclease Inhibitor (Fermentas), 2 mM each of ATP, CTP, and UTP, 0.1 mM GTP, and 1 mM dinucleotide cap analog. The reaction mixture was incubated at 37° C. for 5 min before the addition of SP6 RNA polymerase (Fermentas) to a final concentration of 2 U/μl. After 30 min of incubation at 37° C., GTP was added to a final concentration of 1 mM, and the reaction continued for an additional 90 min. The reaction mixtures were then treated with 1 U of DNase RQ1 (RNAse-free, Promega) per μg of template DNA in transcription buffer at 37° C. for 20 min. RNA transcripts were purified on DEPC-treated Sephadex G-50 spin columns (Pharmacia). The integrity of transcripts was confirmed by electrophoresis on a non-denaturating, 1% agarose gel. Concentrations were determined spectrophotometrically. The transcripts were stored at −80° C. until used.
as §1

[4] = 40 μM cap analog, 30° C., up to 120 min
[5] = cap analog added together with luciferase mRNA, read-out: Inhibition of in vitro translation (IC50), condition A
[6] = cap analog incubated in translation system 60 min before addition of mRNA, read-out: Inhibition of in vitro translation (IC50), condition B

Chain of eIF4E (P63073 28-217 limits assumed): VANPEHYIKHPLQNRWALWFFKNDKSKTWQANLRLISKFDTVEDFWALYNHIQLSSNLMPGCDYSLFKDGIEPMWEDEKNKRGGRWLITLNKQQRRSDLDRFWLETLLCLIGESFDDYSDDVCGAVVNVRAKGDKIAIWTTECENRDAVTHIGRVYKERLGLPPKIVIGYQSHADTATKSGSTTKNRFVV

Structure (SMILES)	Cap analog/eIF4E affinity (KAS) (eIF4E) [μM^−1]	Susceptibility to DcpS (Human DcpS; [4])	Translation efficiency in comparison to m^7GpppG-LUC-(A)31 mRNA, Experiment No. 4 [1]	Translation efficiency in comparison to m^7GpppG-LUC-(A)31 mRNA, Experiment No. 5 [1]	Translation efficiency in comparison to m^7GpppG-LUC-(A)31 mRNA, Mean [1]	IC50 [2, 5] [µM]	IC50 [2, 6] [µM]	Cap analog-eIF4E affinity (KAS) (eIF4E; Table 3) [μM^−1]	Susceptibility to DcpS (Human DcpS; Table 3)	In vitro translational efficiency (method II) ([1]; Table 3, relative to m^7GpppG-capped mRNA = 1.0)	Translation efficiency in comparison to m^7GpppG-LUC-(A)31 mRNA, Experiment No. 1 ([1]; experiment 1)	Translation efficiency in comparison to m^7GpppG-LUC-(A)31 mRNA, Experiment No. 2 ([1]; experiment 2)	Translation efficiency in comparison to m^7GpppG-LUC-(A)31 mRNA, Experiment No. 3 ([1]; experiment 3)	Translation efficiency in comparison with m^7GpppG-LUC mRNA, Experiment No. 1 ([3]; experiment 1)	Translation efficiency in comparison with m^7GpppG-LUC mRNA, Experiment No. 2 ([3]; experiment 2)	Translation efficiency in comparison with m^7GpppG-LUC mRNA, Experiment No. 3 ([3]; experiment 3)	Translation efficiency in comparison with m^7GpppG-LUC mRNA, Experiment No. 4 ([3]; experiment 4)	Translation efficiency in comparison with m^7GpppG-LUC mRNA, Mean ([3]; mean of experiments)	In vitro translational efficiency, method I ([3]; relative to m^7GpppG-capped luciferase mRNA = 1.0)
[BH3-]P(=O)(OC[C@H]1O[C@@H](n2cnc3c(=O)[nH]c(N)nc32)[C@H](O)[C@@H]1O)OP(=O)(O)OP(=O)(O)OC[C@H]1O[C@@H](n2c[n+](C)c3c(=O)[nH]c(N)nc32)[C@H](OC)[C@@H]1O (single isomer, unassigned) [m2^7,2′-OGpppBH3G (D1), m2^7,2′-OGpppBH3G]	15.3 ± 0.2	hydrolyzed	2.38	3.28	2.83														
[BH3-]P(=O)(OC[C@H]1O[C@@H](n2cnc3c(=O)[nH]c(N)nc32)[C@H](O)[C@@H]1O)OP(=O)(O)OP(=O)(O)OC[C@H]1O[C@@H](n2c[n+](C)c3c(=O)[nH]c(N)nc32)[C@H](OC)[C@@H]1O (single isomer, unassigned) [m2^7,2′-OGpppBH3G (D2), m2^7,2′-OGpppBH3G]	14.4 ± 0.2	hydrolyzed	1.76	1.92	1.84														
[BH3-]P(=O)(OP(=O)(O)OCC1OC(n2cnc3c(=O)[nH]c(N)nc32)C(O)C1O)OP(=O)(O)OCC1OC(n2c[n+](C)c3c(=O)[nH]c(N)nc32)C(O)C1O (single isomer, unassigned) [m^7GppBH3pG (D2), m^7GppBH3pG]	13.0 ± 0.2	resistant				4.5 ± 0.5	3.5 ± 0.9												
[BH3-]P(=O)(OC[C@H]1O[C@@H](n2cnc3c(=O)[nH]c(N)nc32)[C@H](O)[C@@H]1O)OP(=O)(O)OP(=O)(O)OC[C@H]1O[C@@H](n2c[n+](C)c3c(=O)[nH]c(N)nc32)[C@H](O)[C@@H]1O (single isomer, unassigned) [m^7GpppBH3G (D1), m^7GpppBH3G]	14.5 ± 0.2	hydrolyzed				3.2 ± 0.3	9.2 ± 1.9												
CO[C@H]1[C@@H](O)[C@H]([n+]2cn(C)c3c(=O)[nH]c(N)nc32)O[C@@H]1COP(=O)([O-])OP(=O)(O)OP(=O)(O)OC[C@H]1O[C@@H](n2cnc3c(=O)[nH]c(N)nc32)[C@H](O)[C@@H]1O [m2^7,3′-OGpppG, 7-methyl(3′-O-methyl)GpppG, reference compound]	10.2 ± 0.3	hydrolyzed	1.77	2.08	1.82			10.2 ± 0.3	hydrolyzed	1.82 ± 0.20	1.98	1.66	1.61	2.53	2.92	2.96	2.50	2.73	2.73 ± 0.25
